pIC50: −log10 of the molar value.

Experiment [1] has as its target Cholecystokinin receptor (Mus musculus) (UniProt O08786+P56481). The experiment in a line: Ratio of IC50(gastrin) to IC50(CCK-A). Type of experiment: protein assay.
In experiment [2] the target is T1, Cholecystokinin receptor type A (Mus musculus, UniProt O08786).
T1 sequence (O08786 whole entry): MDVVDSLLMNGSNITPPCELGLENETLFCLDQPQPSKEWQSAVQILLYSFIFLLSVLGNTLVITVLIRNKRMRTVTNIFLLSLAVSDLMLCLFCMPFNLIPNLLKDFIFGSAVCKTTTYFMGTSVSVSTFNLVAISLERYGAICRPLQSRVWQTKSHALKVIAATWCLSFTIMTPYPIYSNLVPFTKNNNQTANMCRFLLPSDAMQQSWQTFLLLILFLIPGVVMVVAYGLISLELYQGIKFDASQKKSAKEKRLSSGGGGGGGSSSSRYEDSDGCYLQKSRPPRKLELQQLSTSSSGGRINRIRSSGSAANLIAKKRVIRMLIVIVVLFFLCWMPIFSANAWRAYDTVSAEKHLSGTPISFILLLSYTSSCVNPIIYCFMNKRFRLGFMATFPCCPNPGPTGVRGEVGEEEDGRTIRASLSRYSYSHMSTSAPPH
As to the kind of experiment: Inhibitory activity against Cholecystokinin type A receptor.

The target in experiment [3] is T2, Gastrin/cholecystokinin type B receptor (Mus musculus, UniProt P56481).
T2 sequence (P56481 whole entry): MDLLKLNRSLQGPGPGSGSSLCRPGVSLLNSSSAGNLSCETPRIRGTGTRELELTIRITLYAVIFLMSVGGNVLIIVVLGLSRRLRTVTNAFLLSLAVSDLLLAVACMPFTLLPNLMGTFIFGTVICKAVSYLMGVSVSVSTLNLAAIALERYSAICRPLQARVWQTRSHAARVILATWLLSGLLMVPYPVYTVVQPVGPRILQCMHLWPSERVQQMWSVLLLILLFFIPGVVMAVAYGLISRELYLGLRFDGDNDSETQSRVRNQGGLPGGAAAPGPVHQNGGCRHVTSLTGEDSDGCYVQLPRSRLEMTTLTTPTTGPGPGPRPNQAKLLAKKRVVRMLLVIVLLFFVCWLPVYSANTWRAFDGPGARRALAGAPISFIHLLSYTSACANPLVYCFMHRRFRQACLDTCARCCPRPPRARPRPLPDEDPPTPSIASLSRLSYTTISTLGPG
The experiment in a line: Inhibitory activity against Cholecystokinin type B receptor.

In the next experiment the target is Histamine H2 receptor (Rattus norvegicus, UniProt P25102). The experiment in a line: Antagonistic activity by inhibition histamine H2 receptor from rats. The experiment is classed as functional. The conditions noted are these: read-out: pA2 (converted).
Sequence of Histamine H2 receptor (P25102 whole entry): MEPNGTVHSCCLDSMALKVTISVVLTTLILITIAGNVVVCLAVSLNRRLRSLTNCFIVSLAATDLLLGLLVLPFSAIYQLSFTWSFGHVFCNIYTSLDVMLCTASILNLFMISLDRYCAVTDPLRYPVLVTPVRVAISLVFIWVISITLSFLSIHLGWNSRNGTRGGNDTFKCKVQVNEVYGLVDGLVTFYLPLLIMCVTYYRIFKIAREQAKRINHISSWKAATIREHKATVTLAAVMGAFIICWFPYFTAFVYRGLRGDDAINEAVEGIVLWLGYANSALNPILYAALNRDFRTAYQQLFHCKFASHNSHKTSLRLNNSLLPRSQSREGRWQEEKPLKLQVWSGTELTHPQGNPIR

For the molecule `Cc1cccc(NC(=O)N[C@@H]2N=C(c3ccccc3)c3ccccc3N(CCOC(=O)NCCCC(=O)NCCCOc3cccc(CN4CCCCC4)c3)C2=O)c1`, in experiment [1], the Ratio was 34. For the same molecule, the results for the pIC50 in experiment [2] and in experiment [3] were 5.34 and 5.40, respectively. For the same molecule, the Kb at Histamine H2 receptor is 1000 nM.
Regarding `CN1C(=O)[C@H](NC(=O)Nc2cccc(COC(=O)NCC(=O)NCCCOc3cccc(CN4CCCCC4)c3)c2)N=C(c2ccccc2)c2ccccc21`, in experiment [1], the Ratio worked out at 555. In addition, the pIC50 in experiment [2] was 5.21; in experiment [3] it was 6.70. Besides, the Kb at Histamine H2 receptor is 794 nM.
For the molecule `CN1C(=O)[C@H](NC(=O)Nc2cccc(COC(=O)NCCCC(=O)NCCCOc3cccc(CN4CCCCC4)c3)c2)N=C(c2ccccc2)c2ccccc21`, the Ratio in experiment [1] amounted to 138. The results for the pIC50 in experiment [2] and in experiment [3] were 5.44 and 7.19, respectively. Also, the Kb on Histamine H2 receptor was 251 nM.
For the molecule `CN1C(=O)[C@H](NC(=O)Nc2cccc(CCOC(=O)NCCCC(=O)NCCCOc3cccc(CN4CCCCC4)c3)c2)N=C(c2ccccc2)c2ccccc21`, the Ratio in experiment [1] worked out at 217. Further, the pIC50 in experiment [2] was 5.30; in experiment [3] it was 6.74. At Histamine H2 receptor, the Kb was 398 nM.
Take `CN1C(=O)[C@H](NC(=O)Nc2cccc(COC(=O)NCCC(=O)NCCCOc3cccc(CN4CCCCC4)c3)c2)N=C(c2ccccc2)c2ccccc21`: in experiment [1], the Ratio worked out at 9. Further, the pIC50 in experiment [2] is 6.51; in experiment [3], 6.80. In addition, on Histamine H2 receptor, the Kb is 316 nM.
In the case of `Cc1cccc(NC(=O)N[C@@H]2N=C(c3ccccc3)c3ccccc3N(CCOC(=O)NCCCC(=O)NCCSCc3csc(N=C(N)N)n3)C2=O)c1`, the Ratio in experiment [1] turned out to be 289. Moreover, the pIC50 was 5.36 in experiment [2] and 6.03 in experiment [3]. On Histamine H2 receptor, the Kb is 3160 nM.
Taken in the same sequence, the figures for `CN1C(=O)[C@H](NC(=O)Nc2cccc(COC(=O)NCCCN3CCN(C(=O)CNCCCOc4cccc(CN5CCCCC5)c4)CC3)c2)N=C(c2ccccc2)c2ccccc21` were 183, 5.78, 6.40 and 316 nM.
`CC(C)(C)OC(=O)NCCCC(=O)NCCSCc1csc(N=C(N)N)n1`: the Kb at Histamine H2 receptor was 50.1 nM.
With `CC(C)(C)OC(=O)NCCCC(=O)NCCCOc1cccc(CN2CCCCC2)c1`, the Kb at Histamine H2 receptor was 15.8 nM.
On to `CN1C(=O)[C@H](NC(=O)Nc2cccc(CCOC(=O)NCCCC(=O)NCCSCc3csc(N=C(N)N)n3)c2)N=C(c2ccccc2)c2ccccc21`, for which the Ratio in experiment [1] worked out at 35. The pIC50 is 5.89 in experiment [2] and 6.52 in experiment [3]. Moreover, the Kb at Histamine H2 receptor is 794 nM.
In the same order, the values of `Cc1cccc(NC(=O)N[C@@H]2N=C(c3cccc(OC(=O)NCCCC(=O)NCCCOc4cccc(CN5CCCCC5)c4)c3)c3ccccc3N(C)C2=O)c1` are 17, 5.42, 6.34 and 501 nM.
With `CN1C(=O)[C@H](NC(=O)Nc2cccc(COC(=O)NCCNC(=O)CC(=O)NCCCOc3cccc(CN4CCCCC4)c3)c2)N=C(c2ccccc2)c2ccccc21`, the Ratio in experiment [1] came to 432. Moreover, the results for the pIC50 in experiment [2] and in experiment [3] were 5.09 and 6.99, respectively. Further, the Kb at Histamine H2 receptor was 158 nM.
Take `CN1C(=O)[C@H](NC(=O)Nc2cccc(CCOC(=O)NCCC(=O)NCCCOc3cccc(CN4CCCCC4)c3)c2)N=C(c2ccccc2)c2ccccc21`: the Ratio in experiment [1] was determined as 156. The pIC50 in experiment [2] is 5.38; in experiment [3], 7.03. Besides, the Kb on Histamine H2 receptor is 1260 nM.
`CN1C(=O)[C@H](NC(=O)Nc2cccc(COC(=O)NCCN3CCN(C(=O)CNCCCOc4cccc(CN5CCCCC5)c4)CC3)c2)N=C(c2ccccc2)c2ccccc21`: the Ratio in experiment [1] was determined as 106. Further, the pIC50 was 6.13 in experiment [2] and 7.35 in experiment [3]. In addition, the Kb at Histamine H2 receptor was 631 nM.

The pIC50 is the negative decadic logarithm of the IC50, by convention in mol/L.

Source of the values: ChEMBL document CHEMBL1129101 (Bioorg Med Chem Lett, 1996).
